In the oligonucleotide strings, read from the 5' end, every base follows the letter of its sugar. An asterisk marks phosphorothioate; unmarked linkages are phosphodiester. Other units and linkages are bracketed, terminal groups are in braces. A string of capitals states the bases alone. e = 2'-O-(2-methoxyethyl) (MOE); [5mC] = 5-methylcytosine; d = 2'-deoxy (DNA)
System: human Factor 7 mRNA
Test: Antisense inhibition of human Factor 7 mRNA in HepB3 cells, lipofectin, 50 nM, real-time RT-PCR
Assay type: cell-based
Details: Example 1; HepB3 cells, lipofectin, 50 nM, ~24 h, relative to untreated control cells
Description: Antisense oligonucleotides targeted to a Factor 7 nucleic acid were tested for their effects on Factor 7 mRNA in vitro. Cultured HepB3 cells at a density of 4,000 cells per well were transfected using lipofectin reagent with 50 nM antisense oligonucleotide. After a treatment period of approximately 24 hours, RNA was isolated from the cells and Factor 7 mRNA levels were measured by real-time RT-PCR, as described herein. Factor 7 mRNA levels were adjusted according to total RNA content as measured by RIBOGREEN®. Results are presented as percent inhibition of Factor 7, relative to untreated control cells.
(§1) Antisense oligonucleotides targeted to a Factor 7 nucleic acid were designed and tested for their effects on Factor 7 mRNA in vitro. Certain antisense oligonucleotides from Table 3 were also retested for their effects on Factor 7 mRNA in vitro. Cultured HepB3 cells at a density of 4,000 cells per well were transfected using lipofectin reagent with 50 nM antisense oligonucleotide. After a treatment period of approximately 24 hours, RNA was isolated from the cells and Factor 7 mRNA levels were measured by real-time RT-PCR, as described herein. Human Factor 7 primer probe set RTS 2927 was used to measure mRNA levels. Factor 7 mRNA levels were adjusted according to total RNA content as measured by RIBOGREEN®. Results are presented as percent inhibition of Factor 7, relative to untreated control.
as §1, with “tested” for “tested for their effects on Factor 7 mRNA in vitro. Certain antisense oligonucleotides from Table 3 were also retested”
These gapmers were designed by creating gapmers shifted slightly upstream and downstream (i.e. “microwalk”) of the original gapmers from Table 7. Gapmers were also created with various motifs, e.g. 5-10-5 MOE, 3-14-3 MOE, and 2-13-5 MOE. These gapmers were tested in vitro. Cultured HepB3 cells at a density of 4,000 cells per well were transfected using lipofectin reagent with 50 nM antisense oligonucleotide. After a treatment period of approximately 24 hours, RNA was isolated from the cells and Factor 7 mRNA levels were measured by real-time RT-PCR. Factor 7 mRNA levels were adjusted according to total RNA content, as measured by RIBOGREEN®. Results are presented as percent inhibition of Factor 7, relative to untreated control cells.

Substance: 407886 (antisense eG*e[5mC]*eA*eG*eA*dG*dG*dA*dG*d[5mC]*d[5mC]*dT*dG*dA*dG*eG*eG*e[5mC]*e[5mC]*eT) [compound 407886]
- % Inhibition (human Factor 7 mRNA): 72%

Substance: 407887 (antisense e[5mC]*e[5mC]*eA*eG*eG*d[5mC]*dA*dG*d[5mC]*d[5mC]*d[5mC]*dT*dG*dA*dA*eG*e[5mC]*e[5mC]*e[5mC]*eA) [compound 407887]
- % Inhibition (human Factor 7 mRNA): 78%

Substance: 407888 (antisense e[5mC]*eG*eA*eA*eG*dA*d[5mC]*dT*dG*d[5mC]*dA*dG*d[5mC]*d[5mC]*dA*eG*eG*e[5mC]*eA*eG) [compound 407888]
- % Inhibition (human Factor 7 mRNA): 34%

Substance: 407889 (antisense eT*e[5mC]*e[5mC]*eT*eG*dG*dG*dT*dT*dA*d[5mC]*dG*dA*dA*dG*eA*e[5mC]*eT*eG*e[5mC]) [compound 407889]
- % Inhibition (human Factor 7 mRNA): 54%

Substance: 407890 (antisense e[5mC]*eA*eG*eG*eG*dA*dG*d[5mC]*d[5mC]*d[5mC]*dG*dG*d[5mC]*d[5mC]*dG*e[5mC]*eA*eG*e[5mC]*eT) [compound 407890]
- % Inhibition (human Factor 7 mRNA): 60%

Substance: 407891 (antisense e[5mC]*eA*eT*eG*eG*dA*d[5mC]*dT*dT*dG*dA*dG*dG*d[5mC]*dA*e[5mC]*eA*e[5mC]*eT*eG) [compound 407891]
- % Inhibition (human Factor 7 mRNA): 66%

Substance: 407892 (antisense e[5mC]*e[5mC]*e[5mC]*e[5mC]*eA*dT*dT*d[5mC]*dT*dG*dG*d[5mC]*dA*dT*dG*eG*eA*e[5mC]*eT*eT) [compound 407892]
- % Inhibition (human Factor 7 mRNA): 68%

Substance: 407893 (antisense eT*e[5mC]*eG*eA*eA*dG*dG*d[5mC]*dA*dG*dG*dG*dA*dG*dG*e[5mC]*eA*eG*eA*eA) [compound 407893]
- % Inhibition (human Factor 7 mRNA): 33%

Substance: 407894 (antisense eG*eT*eT*e[5mC]*e[5mC]*dG*dG*d[5mC]*d[5mC]*d[5mC]*dT*d[5mC]*dG*dA*dA*eG*eG*e[5mC]*eA*eG) [compound 407894]
- % Inhibition (human Factor 7 mRNA): 77%

Substance: 407895 (antisense e[5mC]*eA*e[5mC]*eA*e[5mC]*dA*dG*dA*dT*d[5mC]*dA*dG*d[5mC]*dT*dG*eG*eT*e[5mC]*eA*eT) [compound 407895]
- % Inhibition (human Factor 7 mRNA): 72%

Substance: 407896 (antisense e[5mC]*eG*eT*eG*eT*dG*dG*dT*d[5mC]*dA*d[5mC]*dT*dG*d[5mC]*dA*eG*eT*eA*e[5mC]*eT) [compound 407896]
- % Inhibition (human Factor 7 mRNA): 73%

Substance: 407897 (antisense eG*e[5mC]*eT*eT*eG*dG*dT*dG*d[5mC]*d[5mC]*d[5mC]*dG*dT*dG*dT*eG*eG*eT*e[5mC]*eA) [compound 407897]
- % Inhibition (human Factor 7 mRNA): 77%

Substance: 407898 (antisense e[5mC]*e[5mC]*eA*eG*e[5mC]*dA*dG*dA*dG*dA*dG*dT*dA*d[5mC]*d[5mC]*e[5mC]*e[5mC]*eT*e[5mC]*eG) [compound 407898]
- % Inhibition (human Factor 7 mRNA): 49%

Substance: 407901 (antisense eT*eG*eG*eT*eG*dT*dT*dG*dA*dT*d[5mC]*dA*dG*dG*dG*eT*e[5mC]*e[5mC]*e[5mC]*e[5mC]) [compound 407901]
- % Inhibition (human Factor 7 mRNA): 89%

Substance: 407902 (antisense e[5mC]*eA*e[5mC]*e[5mC]*e[5mC]*dA*dG*dA*dT*dG*dG*dT*dG*dT*dT*eG*eA*eT*e[5mC]*eA) [compound 407902]
- % Inhibition (human Factor 7 mRNA): 86%

Substance: 407903 (antisense e[5mC]*e[5mC]*eG*e[5mC]*eG*dG*dA*dG*dA*d[5mC]*d[5mC]*dA*d[5mC]*d[5mC]*d[5mC]*eA*eG*eA*eT*eG) [compound 407903]
- % Inhibition (human Factor 7 mRNA): 98%

Substance: 407904 (antisense eG*eA*eA*eA*e[5mC]*dA*dG*dT*dG*dG*dG*d[5mC]*d[5mC]*dG*d[5mC]*eG*eG*eA*eG*eA) [compound 407904]
- % Inhibition (human Factor 7 mRNA): 83%

Substance: 407905 (antisense e[5mC]*e[5mC]*eA*eG*eT*dT*d[5mC]*dT*dT*dG*dA*dT*dT*dT*dT*eG*eT*e[5mC]*eG*eA) [compound 407905]
- % Inhibition (human Factor 7 mRNA): 40%

Substance: 407906 (antisense eA*e[5mC]*e[5mC]*eA*e[5mC]*dG*dG*dG*d[5mC]*dT*dG*dG*dT*dG*d[5mC]*eA*eG*eG*e[5mC]*eG) [compound 407906]
- % Inhibition (human Factor 7 mRNA): 4%

Substance: 407907 (antisense eA*eA*eT*eG*eA*dG*dA*dA*dG*d[5mC]*dG*d[5mC]*dA*d[5mC]*dG*eA*eA*eG*eG*e[5mC]) [compound 407907]
- % Inhibition (human Factor 7 mRNA): 35%

Substance: 407908 (antisense e[5mC]*e[5mC]*e[5mC]*e[5mC]*eA*dG*d[5mC]*d[5mC]*dG*d[5mC]*dT*dG*dA*d[5mC]*d[5mC]*eA*eA*eT*eG*eA) [compound 407908]
- % Inhibition (human Factor 7 mRNA): 47%

Substance: 407909 (antisense e[5mC]*e[5mC]*eA*eT*e[5mC]*d[5mC]*dG*dA*dG*dT*dA*dG*d[5mC]*d[5mC]*dG*eG*e[5mC]*eA*e[5mC]*eA) [compound 407909]
- % Inhibition (human Factor 7 mRNA): 77%

Substance: 407911 (antisense e[5mC]*e[5mC]*e[5mC]*e[5mC]*eT*dT*dG*d[5mC]*dA*dG*dG*dA*dG*dT*d[5mC]*e[5mC]*eT*eT*eG*e[5mC]) [compound 407911]
- % Inhibition (human Factor 7 mRNA): 74%

Substance: 407912 (antisense e[5mC]*e[5mC]*e[5mC]*eG*eG*dT*dA*dG*dT*dG*dG*dG*dT*dG*dG*e[5mC]*eA*eT*eG*eT) [compound 407912]
- % Inhibition (human Factor 7 mRNA): 46%

Substance: 407913 (antisense eG*eA*eT*eG*e[5mC]*d[5mC]*d[5mC]*dG*dT*d[5mC]*dA*dG*dG*dT*dA*e[5mC]*e[5mC]*eA*e[5mC]*eG) [compound 407913]
- % Inhibition (human Factor 7 mRNA): 74%

Substance: 407914 (antisense e[5mC]*e[5mC]*eA*eG*e[5mC]*dT*dG*dA*d[5mC]*dG*dA*dT*dG*d[5mC]*d[5mC]*e[5mC]*eG*eT*e[5mC]*eA) [compound 407914]
- % Inhibition (human Factor 7 mRNA): 82%

Substance: 407915 (antisense eG*eT*eT*eG*e[5mC]*dG*d[5mC]*dA*dG*d[5mC]*d[5mC]*d[5mC]*dT*dG*dG*e[5mC]*e[5mC]*e[5mC]*e[5mC]*eA) [compound 407915]
- % Inhibition (human Factor 7 mRNA): 83%

Substance: 407916 (antisense eG*eT*eG*eG*e[5mC]*d[5mC]*d[5mC]*dA*d[5mC]*dG*dG*dT*dT*dG*d[5mC]*eG*e[5mC]*eA*eG*e[5mC]) [compound 407916]
- % Inhibition (human Factor 7 mRNA): 53%

Substance: 407917 (antisense eA*e[5mC]*eA*e[5mC]*e[5mC]*d[5mC]*d[5mC]*dA*dA*dA*dG*dT*dG*dG*d[5mC]*e[5mC]*e[5mC]*eA*e[5mC]*eG) [compound 407917]
- % Inhibition (human Factor 7 mRNA): 70%

Substance: 407918 (antisense e[5mC]*e[5mC]*eT*eG*eG*dT*dG*dT*dA*d[5mC]*dA*d[5mC]*d[5mC]*d[5mC]*d[5mC]*eA*eA*eA*eG*eT) [compound 407918]
- % Inhibition (human Factor 7 mRNA): 72%

Substance: 407919 (antisense eT*e[5mC]*eG*eA*eT*dG*dT*dA*d[5mC]*dT*dG*dG*dG*dA*dG*eA*e[5mC]*e[5mC]*e[5mC]*eT) [compound 407919]
- % Inhibition (human Factor 7 mRNA): 84%

Substance: 407920 (antisense eT*eG*eA*eG*e[5mC]*dG*d[5mC]*dA*dT*dG*dA*dG*d[5mC]*dT*dT*eT*eT*eG*e[5mC]*eA) [compound 407920]
- % Inhibition (human Factor 7 mRNA): 65%

Substance: 407921 (antisense e[5mC]*e[5mC]*eA*e[5mC]*eA*dG*dG*d[5mC]*d[5mC]*dA*dG*dG*dG*d[5mC]*dT*eG*e[5mC]*eT*eG*eG) [compound 407921]
- % Inhibition (human Factor 7 mRNA): 65%

Substance: 407922 (antisense eT*e[5mC]*eG*eA*e[5mC]*dG*d[5mC]*dA*dG*d[5mC]*d[5mC]*dT*dT*dG*dG*e[5mC]*eT*eT*eT*e[5mC]) [compound 407922]
- % Inhibition (human Factor 7 mRNA): 82%

Substance: 407923 (antisense e[5mC]*eA*eG*eG*eA*d[5mC]*dA*dG*dT*dT*d[5mC]*dG*dA*d[5mC]*dG*e[5mC]*eA*eG*e[5mC]*e[5mC]) [compound 407923]
- % Inhibition (human Factor 7 mRNA): 76%

Substance: 407924 (antisense eG*eA*eT*eT*eT*dG*dG*dT*dG*d[5mC]*d[5mC]*dA*dG*dG*dA*e[5mC]*eA*eG*eT*eT) [compound 407924]
- % Inhibition (human Factor 7 mRNA): 68%

Substance: 407925 (antisense eG*eA*eA*eT*eA*dT*dA*dT*dG*dG*dG*dA*dT*dT*dT*eG*eG*eT*eG*e[5mC]) [compound 407925]
- % Inhibition (human Factor 7 mRNA): 64%

Substance: 407926 (antisense e[5mC]*e[5mC]*eA*eG*eG*dA*d[5mC]*dA*dA*d[5mC]*d[5mC]*dT*dT*dG*dG*e[5mC]*eA*e[5mC]*eT*e[5mC]) [compound 407926]
- % Inhibition (human Factor 7 mRNA): 79%
